{"source": "patent US10259815B2", "about": "“Gabaergic ligands and their uses” (UWM Research Foundation, Inc., priority 2015, dated 2019)", "key": {"[1]": {"assay": "Pharmacokinetics and brain concentration after 10 mg/kg P.O. dose, rats", "type": "in vivo", "description": "In a 10 mg/kg oral dose in rats, a concentration of 644 ng/g of KRM-II-81 was found unbound in the brain, indicating a great pharmacokinetic-profile.\nAlthough these are different species, the numbers can still be compared."}, "Male CD-1 mice": {"tested_on": "Male CD-1 mice", "assay": "Maximal electroshock (MES)-induced convulsion protection", "type": "in vivo", "settings": "i.p. 30 minutes prior to test", "description": "Male CD-1 mice (n=10) were dosed i.p. 30 minutes prior to being tested. Results were analyzed using ANOVA (Dunnett's test versus vehicle: *P<0.05).\nThe maximal electroshock (MES) assay is designed to determine how well a test compound can prevent seizures induced by applying a voltage stimuli to a mouse.\nMice were subjected to electrical induced tonic seizures and examined for anticonvulsant effects 30 minutes after treatment. Mice were then given a 7 mA electroshock using a Wahlquist Model H for 0.2 seconds and observed for the presence or absence of seizure activity. Each mouse is tested only once and euthanized immediately following the test."}, "Mice": {"tested_on": "Mice", "assay": "scMET test for anticonvulsant activity, mice", "type": "in vivo", "description": "Mice were then dosed i.p. with 5, 10, 25, or 50 mg/kg of KRM-II-81."}, "Male Sprague-Dawley rats": {"tested_on": "Male Sprague-Dawley rats", "assay": "Vogel conflict procedure", "type": "in vivo", "settings": "i.p. 30 minutes prior; KRM-II-81 significant at 10 mg/kg; chlordiazepoxide 20 mg/kg", "description": "FIG. 10 is a graph of the concentration of KRM-II-81 versus percent of control for KRM-II-81 analyzed in the Vogel conflict procedure. After a baseline was established using a vehicle (1% 2-hydroxyethyl cellulose), male Sprague-Dawley rats (n=6-8) were dosed i.p. with either KRM-II-81 (3, 10, 30, or 60 mg/kg) or chlordiazepoxide (20 mg/kg) 30 minutes prior to testing. Results were analyzed using ANOVA (Dunnett's test: *P<0.05; Student t-test: **P<0.05).\nSubjects are withheld from water prior to testing. Once given water during testing, they will either be unpunished, where they are free to drink without consequence, or punished, where a small electrical shock is applied after every 20th lick. In vehicle punished, is it is expected that the rats hesitate from drinking due to the anxiousness of being shocked. When given an anxiolytic, the […] will continue to drink water despite the electrical shock.\nExperiments were conducted as described in the protocol of Alt et al. (Neuropharmacology 2007, 52, 1482-1487). […]\nApparatus. […] All events were controlled and licking data was recorded by a Compaq computer running MED-PC Version IV (Med Associates Inc., Georgia, Vt., USA).\nSipper tube training. […] The six minutes was broken into two components, the first three minutes was recorded as the unpunished component and the second three minutes were recorded as the punished component. […]"}, "Male NIH Swiss mice": {"tested_on": "Male NIH Swiss mice", "assay": "Forced swim test", "type": "in vivo", "settings": "10 and 30 mg/kg i.p.", "description": "FIG. 16 is a graph of immobility illustrating the antidepressant effects of KRM-II-81 assessed in the forced swim test. Male NIH Swiss mice (n=7-8) were dosed i.p. with vehicle (1% HEC, 0.25% Tween 80, 0.05% antifoam), KRM-II-81 (3, 10, or 30 mg/kg), or imipramine (15 mg/kg) and assessed in the forced swim test. Results were analyzed using ANOVA (Dunnett's test *P<0.05).\nThe forced swim test is used as a primary screen for the antidepressant nature of a test compound. Mice are placed in a cylinder filled with a small amount of water. Mice that are more mobile after a dosing of a compound are determined to be less depressed.\nThe experiment was carried out as described by Porsolt et al. (Arch. Int. Pharmacodyn. Ther. 1977, 229, 327-366). Male NIH Swiss mice (n=7-8) were dosed i.p. with vehicle (1% HEC, 0.25% Tween 80, 0.05% antifoam), KRM-II-81 (3, 10, or 30 mg/kg), or imipramine (15 mg/kg) and assessed in the forced swim test. Mice were placed individually in clear plastic cylinders (10 cm in diameter×25 cm in height) filled to 6 cm with 22-25° C. water for 6 minutes. The duration of immobility was recorded during the last 4 minutes of a 6-minute trial. A mouse was regarded as immobile when floating motionless or making only those movements necessary to keep its head above the water."}, "CYP2C9": {"target": "CYP2C9 (Homo sapiens, UniProt P11712)", "sequence (P11712 whole entry)": "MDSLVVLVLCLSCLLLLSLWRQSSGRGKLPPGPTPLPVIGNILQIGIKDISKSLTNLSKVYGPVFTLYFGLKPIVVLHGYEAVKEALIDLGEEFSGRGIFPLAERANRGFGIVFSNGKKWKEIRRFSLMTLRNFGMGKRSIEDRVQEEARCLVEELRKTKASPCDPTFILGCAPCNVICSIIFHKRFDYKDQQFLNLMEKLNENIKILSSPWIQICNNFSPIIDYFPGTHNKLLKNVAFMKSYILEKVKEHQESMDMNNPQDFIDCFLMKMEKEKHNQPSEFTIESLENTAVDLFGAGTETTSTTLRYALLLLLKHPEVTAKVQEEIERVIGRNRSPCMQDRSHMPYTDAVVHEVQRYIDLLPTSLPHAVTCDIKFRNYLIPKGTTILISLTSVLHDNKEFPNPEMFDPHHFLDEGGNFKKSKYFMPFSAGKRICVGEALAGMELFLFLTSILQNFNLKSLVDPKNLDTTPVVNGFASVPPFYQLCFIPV", "assay": "CYP substrate assessment, CYP2C9"}}, "note": "Entries after “also recorded” stand apart in the source; their conditions may differ.", "data": [{"compound": "C#Cc1ccc2c(c1)C(c1ccccn1)=NCc1c(-c3cnco3)ncn1-2", "note": "[KRM-II-81, 5-(8-Ethynyl-6-(pyridin-2-yl)-4H-benzo[f]imidazo[1,5-a][1,4]diazepin-3-yl)oxazole]", "values": [{"measurement": "concentration in the blood relative to HZ-166", "setting": "[1]; Cmax, 10 mg/kg P.O., KRM-II-81 in rats vs HZ-166 in mice", "value": "~500", "unit": "times"}, {"measurement": "Tmax", "setting": "[1]; rat, blood, po, 10 mg/kg P.O., rats", "value": 1.3, "unit": "h"}, {"measurement": "Cmax", "setting": "[1]; rat, blood, po, 10 mg/kg P.O., rats, read-out: Cmax (highest concentration found in blood)", "value": 1750, "unit": "ng/mL"}, {"measurement": "concentration at 1 h", "setting": "[1]; rat, brain (unbound), 10 mg/kg oral dose, one hour after dose, rats stated for KRM-II-81, read-out: brain unbound concentration ([brain]u)", "value": 644, "unit": "ng/g"}, {"measurement": "fraction unbound", "setting": "[1]; rat, 10 mg/kg oral dose, brain, read-out: free fraction", "value": 0.18}, {"measurement": "protection against MES-induced seizures", "setting": "Male CD-1 mice", "value": "greater effectiveness than HZ-166; also recorded: fully protected against seizure induction"}, {"measurement": "Protected (animals protected/tested)", "setting": "Mice; Dose 5 mg/kg i.p.", "value": "0/8"}, {"measurement": "Protected (animals protected/tested)", "setting": "Mice; Dose 10 mg/kg i.p.", "value": "5/8"}, {"measurement": "Protected (animals protected/tested)", "setting": "Mice; Dose 25 mg/kg i.p.", "value": "7/8"}, {"measurement": "Protected (animals protected/tested)", "setting": "Mice; Dose 50 mg/kg i.p.", "value": "8/8"}, {"measurement": "ED50", "setting": "Mice; Mus musculus, ip, half hour time point, mice", "value": 10.9, "unit": "mg/kg"}, {"measurement": "punished licking compared to control", "setting": "Male Sprague-Dawley rats", "value": "significant increase in punished licking"}, {"measurement": "antidepressant effects (immobility)", "setting": "Male NIH Swiss mice", "value": "demonstrated antidepressant effects"}, {"measurement": "substrate of CYP2C9", "setting": "CYP2C9", "value": "not found to be a substrate"}]}]}
